Source: patent publication US20090238792A1, “SUPPRESSION OF POSTOPERATIVE ILEUS” (University of Pittsburgh of the Commonwealth System of …, priority 2007, published 2009)

B1: interleukin-10 (protein, UniProt P18893 19-178, looked up)
Interleukin-10: SRGQYSREDNNCTHFPVGQSHMLLELRTAFSQVKTFFQTKDQLDNILLTDSLMQDFKGYLGCQALSEMIQFYLVEVMPQAEKHGPEIKEHLNSLGEKLKTLRMRLRRCHRFLPCENKSKAVEQVKSDFNKLQDQGVYKAMNEFDIFINCIEAYMMIKMKS

Key:
[1] = system: rats with surgical manipulation of the intestine; test: Rat in vivo gastrointestinal transit of fluorescein-labeled dextran (geometric center); conditions: surgically manipulated rats, 24 h postoperatively, i.v. pretreatment 1 h before surgery; glycine 170 mg/kg, valine 263.5 mg/kg; SM vehicle GC=5.2±0.7
Protocol: (§1) Age matched animals treated with vehicle (normal saline) or valine (263.5 mg/kg, osmotic control) at appropriate time points and at equal volumes served as controls.
(§2) The rodent intestine was subjected to a standardized degree of surgical manipulation as described previously (14). Rats were anesthetized by isoflurane inhalation and the abdomen was opened by a midline laparotomy. The cecum was eventrated and laid out onto a moist gauze. Then, the intestine was inspected along its length and gently compressed using moist cotton applicators. The midline incision was closed by two layers of continuous sutures. All operative procedures were performed under sterile conditions with the intestine being handled only by instruments and never touched directly. Animals were killed at specific time points postoperatively by isoflurane anesthesia inhalation overdose and heart incision.
(§3) Methods: ACI-rats (180-220 g) underwent standardized surgical manipulation of the intestine. […] Age matched animals treated with vehicle or valine (osmotic control) at appropriate time points and at equal volumes served as controls. […] Postoperative mediator mRNA expression in the intestinal muscularis was determined by real-time RT PCR. Leukocyte extravasation was investigated in muscularis whole-mounts. Nitrite production was measured in muscularis cultures. In vivo transit of FITC-dextran was measured using geometric center analysis (GC). In vitro circular muscle contractility was assessed in a standard organ bath. Statistical analysis: unpaired Student t test, p<0.05, mean±SEM.

[2] = system: prostanoids; test: Prostanoid release (ELISA) from organ cultured muscularis; type: in vivo, rat; conditions: manipulated rats, glycine 170 mg/kg or valine
Protocol: Age matched animals treated with vehicle (normal saline) or valine (263.5 mg/kg, osmotic control) at appropriate time points and at equal volumes served as controls. The rodent intestine was subjected to a standardized degree of surgical manipulation as described previously (14). Rats were anesthetized by isoflurane inhalation and the abdomen was opened by a midline laparotomy. The cecum was eventrated and laid out onto a moist gauze. Then, the intestine was inspected along its length and gently compressed using moist cotton applicators. The midline incision was closed by two layers of continuous sutures. All operative procedures were performed under sterile conditions with the intestine being handled only by instruments and never touched directly. Animals were killed at specific time points postoperatively by isoflurane anesthesia inhalation overdose and heart incision. The synthesis of prostanoids released into the tissue culture supernatant over a period of 24 hours was assayed by ELISA. After incubation the culture median and tissue was inspected, 500 μL aliquots of supernatant were frozen in liquid nitrogen and stored at −80° C. The muscle tissue was blotted dry and weighed. Culture supernatants were assayed for the measurement of prostaglandin secretion by enzyme immunoassay (Cayman Chemicals, Ann Arbor, Mich.). The ELISA was carried out in a 1:10 and 1:30 dilution. The assay was corrected for wet tissue weights and the prostaglandin ELISA kit sensitivity was 20 pg/ml.

[3] = system: MPO positive leukocytes in the intestinal muscularis; test: Myeloperoxidase (MPO) histochemistry: leukocyte infiltration in muscularis whole-mounts; type: in vivo, rat; conditions: manipulated rats, 24 h postoperatively; glycine 170 mg/kg or valine (263.5 mg/kg); SM vehicle 95±6.4
Protocol: as §1, §2
Histochemistry and Immunohistochemistry: Leukocyte infiltration was quantified on rat whole-mounts of the intestinal muscularis as described previously (N=6-8) (43). Myeloperoxidase (MPO) positive cells were detected using a mixture of 30 mg Hanker-Yates reagent, 30 ml KRB and […] 3% hydrogen peroxide for 10 minutes. Leukocytes were counted in 5 randomly chosen areas in each specimen (3 specimen per animal) at a magnification of 200×.
as §3

[4] = system: IL-6 mRNA; test: Real-time RT-PCR of muscularis IL-6 mRNA 3 hours postoperatively; type: in vivo, rat; conditions: surgically manipulated rats, 3 hours postoperatively
Protocol: as §1, §2
mRNA Expression Analysis: Postoperative mediator mRNA expressions in the small intestinal muscularis were analyzed using SYBR Green two-step real-time RT-PCR as previously described, (N=4-6). […] Total mRNA extraction was performed using the guanidium-thiocyanate phenol-chloroform extraction method. Equal aliquots (200 ng) of total RNA from each sample, quantified by spectrophotometer, were processed for complimentary DNA (cDNA) synthesis. Primer sequences were used as described previously (tumor necrosis factor-a, TNF-a) (35), or designed according to published sequences 36-41, (GenBank accession numbers: NM_017008 [glyceraldehyde phosphate dehydrogenase (GAPDH)], AF233596 [cyclo-oxygenase-2 (COX-2)], NM_012967 [intercellular adhesion molecule-1 (ICAM-1)], M26744 [interleukin-6 (IL-6)] and NM_012611 [inducible nitric oxide synthase (iNOS)]), using Primer Express software (PE Applied Biosystems, Foster City, Calif.) and purchased from Life Technologies (Rockville, Md.). GAPDH was used as an endogenous control. The efficiency and equality of the real-time PCR primer pairs were determined by amplifying serial dilutions of muscularis cDNA. For each target gene different MgCl2 (3 to 5 mM) concentrations were tested to optimize the PCR amplification. […] Relative quantification was performed using the comparative CT method as described by Schmittgen et al. (42).
Methods: ACI-rats (180-220 g) underwent standardized surgical manipulation of the intestine. […] Postoperative mediator mRNA expression in the intestinal muscularis was determined by real-time RT PCR. […] Nitrite production was measured in muscularis cultures. In vivo transit of FITC-dextran was measured using geometric center analysis (GC). In vitro circular muscle contractility was assessed in a standard organ bath. […]

[5] = system: jejunal circular smooth muscle; test: In vitro bethanechol stimulated contractile activity of jejunal circular muscle strips; type: in vivo, rat; conditions: manipulated rats, 170 mg/kg glycine or valine pretreatment, 100 mM bethanechol; control 3.2±0.2, SM vehicle 1.9±0.1
Protocol: as §1, §2
Mechanical in vitro activity of the rat mid-jejunum was evaluated at 24 hours postoperatively using smooth muscle strips of the circular muscularis as described previously (rats: N=5-11) (14). After dissection and a 30 minute equilibration period, the individual muscles were incrementally stretched to L0. Then after recording spontaneous contractility for 30 minutes, dose response curves were generated using increasing concentrations of the muscarinic agonist bethanechol ([…]) for 10 minutes and intervening wash periods (KRB) of 10 minutes. The contractile response was recorded and analyzed as g/mm2/sec over a 10 minute period.
as §3

[6] = system: nitrite (nitric oxide); test: Nitrite release (Griess reaction) from organ cultured muscularis; type: in vivo, rat; conditions: manipulated rats, glycine 170 mg/kg or valine
Protocol: as §1, §2
Tissue culture and determination of nitrite and prostanoid release in supernatant: The rat small intestine and colon were processed for tissue culture at 24 hours as described previously, (N=5-8) (25). Briefly, the muscularis was isolated by stripping the muscularis from the mucosa and then cut into small pieces and washed twice in Hank's balanced salt solution (HBSS) with 100 U/ml penicillin G and 100 μg/ml streptomycin. Aliquots of muscularis ([…]) were incubated (37° C., 5% CO2) in 6-well tissue culture plates containing 3 ml of supplemented Dulbecco's modified Eagle medium (DMEM)-F12 with 100 U/ml penicillin G and 100 μg/ml streptomycin. After an incubation period of 24 hours, 500 μl aliquots of supernatant were collected, frozen in liquid nitrogen and stored at −80° C. The muscle tissue was blotted dry, and the weight was estimated. To estimate the generation of NO from the intestinal muscularis, nitrite production was measured by the Griess reaction (44). Supernatant from the tissue culture was mixed with equal amount of Griess reagent (0.1% N-(1-naphtyl)ethyl-enediamine dihydrochloride and 1% sulfanilamide in 6% phosphoric acid; 1:1) and incubated at room temperature for 10 minutes. The absorbance at 550 nm was measured with a microplate reader and compared with standard prepared from serial dilutions of sodium nitrite. Each standard and supernatant sample was analyzed in duplicate, and the mean value of nitrite production was normalized to the tissue weight.
as §3

[7] = system: GM-CSF, VEGF, IL-1α, IL-6, MCP-1 and MIP-1α; test: Luminex mediator release from muscularis, IL-10 treatment; type: in vivo, mice; conditions: SM + IL-10 vs SM
Protocol: (§4) Methods: Mice were subjected to surgical intestinal manipulation (SM) to induce ileus. Before and after animals were treated with IL-10 (12.5 μg/kg, s.c.). Gastrointestinal transit and organ bath measured motility. Histochemistry on jejunal muscularis whole-mounts quantified neutrophil recruitment. Muscularis mediator expressions were measured by RT-PCR, Griess reaction, ELISA and Luminex (N=4 each).

[8] = system: jejunal circular muscle; test: Organ bath: jejunal circular muscle contractions to bethanechol, IL-10 treatment; type: in vivo, mice; conditions: SM + IL-10 12.5 μg/kg s.c.; 100 μM bethanechol; SM alone 59.2±4.8%
Protocol: as §4

[9] = system: mice subjected to surgical intestinal manipulation (SM); test: Gastrointestinal transit (geometric center) after surgical intestinal manipulation, IL-10 treatment; type: in vivo; conditions: SM + IL-10 12.5 μg/kg s.c. before and after; control=10.6±0.3, SM=4.6±0.6
Protocol: as §4

[10] = system: IL-6, IL-1β and MCP 1 mRNAs; test: RT-PCR of muscularis mediator mRNAs, IL-10 treatment; type: in vivo, mice; conditions: treated animals vs SM
Protocol: as §4

[11] = system: prostanoids; test: ELISA prostanoid release from muscularis, IL-10 treatment; type: in vivo, mice; conditions: SM + IL-10; control=4033.4, SM=13111
Protocol: as §4

[12] = system: muscularis neutrophil recruitment; test: Histochemistry on jejunal muscularis whole-mounts: neutrophil recruitment, IL-10 treatment; type: in vivo, mice; conditions: IL-10 treatment compared to SM with vehicle
Protocol: as §4

[13] = system: NO; test: Griess reaction NO release from muscularis, IL-10 treatment; type: in vivo, mice; conditions: SM + IL-10; control=47.1, SM=607.7
Protocol: as §4

| Molecule | geometric center (GC) of gastrointestinal transit [1] | prostanoid release, fold of control, colon ([2]; colonic muscularis 24 h organ culture, SM 3.1-fold) [fold] | prostanoid release, fold of control, jejunum ([2]; jejunal muscularis 24 h organ culture, SM 5.9-fold) [fold] | infiltrating MPO positive leukocytes [3] [cells/field at 200×] | postoperative induction of IL-6 mRNA [4] | mean contractile force, bethanechol stimulated [5] [g/mm2/s] | nitrite release, fold increase over control, colon ([6]; colonic muscularis 24 h organ culture, SM vehicle 10.9-fold) [fold] | nitrite release, fold increase over control, jejunum ([6]; jejunal muscularis 24 h organ culture, SM vehicle 11.4-fold) [fold] | mediator release (GM-CSF, VEGF, IL-1α, IL-6, MCP-1 and MIP-1α) [7] | jejunal circular muscle contractions to bethanechol, % of control [8] [%] | geometric center (GC) of gastrointestinal transit [9] | induction of IL-6, IL-1β and MCP 1 mRNAs after SM [10] | prostanoids (PG) release [11] [pg/mL/mg] | muscularis neutrophil recruitment [12] | NO release [13] [µM/g] |
| --- | --- | --- | --- | --- | --- | --- | --- | --- | --- | --- | --- | --- | --- | --- | --- |
| CC(C)[C@H](N)C(=O)O [valine, reference compound] | 6.2±0.5 | 1.5 | 3.4 | 93±2.7 | no effect | 2.1±0.2 | 9.5 | 12.0 | – | – | – | – | – | – | – |
| B1 | – | – | – | – | – | – | – | – | significantly diminished | 93.6±21.1 | 10.8±0.4 | less induction | 3946.7 | significantly less | 49.1 |
